Measurements from US12486298B2, “Fucosyltransferase specific inhibition using fucose mimetics” (THE FLORIDA INTERNATIONAL UNIVERSITY BOARD OF TRUSTEES, priority 2020, dated 2025).
Entries after “also recorded” stand apart in the source; their conditions may differ.

Key:
Assay type in all cases: cell-based, human
HL60 cells = experiment: Inhibition of native cell surface fucosylation of HL60 cells (flow cytometry); conditions: 72 hours incubation, 24-, 48-, 72-hour timepoints, 6A and 26 at 64 or 256 uM
Method: (§1) For inhibition of cell surface fucosylation, a Symphony A3 (BD Biosciences) was utilized for flow cytometry and the data acquired was analyzed using FlowJo Software (Treestar). Cells were stained using antibodies specific to CD15s (CSLEX1) from BD biosciences and CD15 (LeX) from Biolegend.
The HL60 cell line (a human promyelocytic leukemia cell line) was incubated for 72 hours in RPMI 1640 medium containing 10% FBS with either 2F-Ac-Fucose (positive control), Compound 6A (64 or 256 uM), or Compound 26 (64 or 256 uM). Cells were evaluated by flow cytometry at 24-, 48-, and 72-hour timepoints of incubation for expression of CD15s (sLe^X) and CD15 (Le^X) (FIG. 10B).
(§2) In each case, expression of the relevant marker (CD15 or CD15s) was quantified as the median channel fluorescence (MFI), which was then divided by the MFI of Control cells incubated in media containing DMSO at levels equivalent to that for each inhibitor tested (i.e., Y-axis are values of (MFI of inhibitor-treated cells/MFI of DMSO-incubated Control cells)×100%).

THP-1 cells = experiment: Inhibition of native cell surface fucosylation of THP-1 cells (flow cytometry); conditions: for CD15 (Le^X) expression / CD15s (sLe^X) expression: 48 hours incubation, 24- and 48-hour timepoints
Method: as §1
The THP-1 cell line (a human monocytic leukemia cell line) was incubated for 48 hours with either Compound 31, Compound 6A, Compound 26, or with 2F-Ac-Fucose (positive control) in RPMI 1640 medium containing 10% FBS. Cells were evaluated by flow cytometry at 24- and 48-hour timepoints for expression of CD15 (Le^X), and CD15s (sLe^X) (FIG. 11).
as §2

KG1a cells = experiment: Inhibition of native cell surface fucosylation of KG1a cells (flow cytometry); conditions: 72 hours incubation, 24-, 48-, 72-hour timepoints, 64 or 256 uM
Method: as §1
Cells were evaluated at 24-, 48-, and 72-hour timepoints of incubation to assess for effects on expression of CD15s (sLe^X) by flow cytometry (FIG. 10A).
as §2

Structure (SMILES)	CD15 (Le^X) expression (HL60 cells)	CD15s (sLe^X) expression (HL60 cells)	concentration range inhibiting creation of CD15s (THP-1 cells)	concentration range inhibiting synthesis of CD15 (THP-1 cells)	CD15s (sLe^X) synthesis (THP-1 cells; 3 μM)	CD15 (Le^X) synthesis (THP-1 cells; 50 μM)	CD15s (sLe^X) synthesis (THP-1 cells; 50 μM)	CD15 (Le^X) expression (THP-1 cells)	CD15s (sLe^X) expression (THP-1 cells)	CD15s (sLe^X) expression (KG1a cells)	time by which CD15s inhibition is evident (THP-1 cells)	concentration inhibiting creation of CD15s (THP-1 cells; within 48 hours)
CC(=O)OC1O[C@@H](C)[C@@H](OC(C)=O)[C@@H](OC(C)=O)[C@@H]1F (stereo partly drawn) [2F-Ac-Fucose, reference compound]	loss of both CD15s and CD15 expression	loss of both CD15s and CD15 expression	micromolar range	micromolar range	not at 3 μM concentration	inhibition of synthesis	inhibition of synthesis	inhibits synthesis of both markers	inhibits synthesis of both markers	–	–	–
CC(=O)OC1C(C)OC2Oc3ccc(CC(=O)NCCOCCOCCN)cc3SC2C1OC(C)=O.O=C(O)C(F)(F)F (stereo not drawn) [Compound 6A]	only inhibited the formation of CD15s	inhibited the formation of CD15s	nanomolar range; also recorded: nM range	–	–	–	–	does not inhibit CD15 expression	inhibit creation of CD15s	inhibited CD15s expression similar to that of 2F-Ac-Fucose	≤ 24 h	–
CCOC(=O)C1=C(C23CCC4CC(CC(C4)C2)C3)OC2OC(C)C(OC(C)=O)C(OC(C)=O)C2S1 (stereo not drawn) [Compound 26]	only inhibited the formation of CD15s	inhibited the formation of CD15s	nanomolar range; also recorded: nM range	–	–	–	–	does not inhibit CD15 expression	inhibit creation of CD15s	inhibited CD15s expression similar to that of 2F-Ac-Fucose	≤ 24 h	–
COC(=O)Cc1ccc2c(c1)SC1C(O2)OC(C)C(OC(C)=O)C1OC(C)=O (stereo not drawn) [Compound 31]	–	–	–	–	–	–	–	does not inhibit CD15 expression	specificity for inhibiting the creation of CD15s; also recorded: inhibits the creation of CD15s	–	≤ 48 h	below 50 uM
